In article PMC9603946, “On the Sensitivity of the Virion Envelope to Lipid Peroxidation” (Microbiology Spectrum, 2022):
“And” between values parts separate entries of the source, which are not always exact repeats. Identical values can stand only once. Like-named read-outs stand apart in the source and are kept apart here. Marks after values point to notes of the source that are not given here.

Key:
HSV-1 [1] = assay type: cell-based, HSV-1 KOS; settings: for drop of viral titers: after 2 h of incubation in atmospheric O2 at 37°C with the substance; for protective effect on infectivity in atmospheric O2: substance alone, without BSA carrier
Method: To test other oxidative conditions, an HSV-1 suspension was incubated in atmospheric oxygen at 37°C in DMEM without serum. The virions were incubated with the previously used antioxidants (vitamin E-BSA and vitamin C), vitamin E without the carrier, the BSA carrier alone, vitamin C-BSA, cholesterol (another compound with a conjugated ring and alkyl chains but with limited antioxidant activity), or cholesterol-BSA. A plaquing efficiency assay was then performed with the treated virions.
A time course plaquing efficiency assay was performed with HSV-1 incubated under atmospheric oxidative conditions. Virions (3 × 10^5 PFU) were incubated with vitamin E, vitamin E-BSA, cholesterol, cholesterol-BSA, vitamin C (10 μM final concentration), or the carrier BSA (0.5% final concentration) for 3 h at 37°C in a water bath with atmospheric air (atmospheric O2). Aliquots from each condition were taken every hour and diluted 1:200 to perform plaquing efficiency assays as previously described on the Vero cells.

[2] = many months of exposure to light at room temperature; no reference given; cited from earlier work
HSV-1 [3] = test: HSV-1 virion infectivity (plaquing efficiency) on Vero cells after virion pretreatment; settings: for EC50: Human alphaherpesvirus 1, Vero
Method: (§1) The inocula were removed, and the cells were washed and then incubated at 37°C in 5% CO2 until plaques were visible and well-resolved (about 2 days), at which time they were fixed and stained with crystal violet.
(§2) HSV-1 suspensions of 20,000 plaque PFU in 250 μL DMEM were mixed 1:1 with 2-fold serial dilutions of the general peroxidators and were incubated in a water bath for 2 h at 37°C. Next, treated virions were diluted 1:100 before being adsorbed onto cells for 1 h at 37°C. The inocula were removed, and the cells were washed twice with cold DMEM. Infected cells were overlaid with DMEM supplemented with 2% (Vero) or 1% (HFF) methylcellulose and 5% FBS and were incubated at 37°C until plaques were visible and well-resolved, typically in about 2 days. Cell monolayers were fixed and stained with 1% crystal violet in 17% methanol for 18 h at RT. The cells were washed, and the plaques were counted and normalized to those produced by the vehicle treated virions.
(§3) To test the effects of lipid soluble antioxidants on virions, 10 μM vitamin E loaded onto 1% carrier BSA in the dark for 4.5 h at RT was incubated with 10^6 HSV-1 virions for 3 h at 37°C. […] The treated virions were diluted 1:100 before infecting cells. […] The mix was incubated for 2 h at 37°C, diluted 1:100, and used to infect cells. The infectivity of an aliquot of treated virions was tested via a plaque assay.

[4] = Vero cell viability after 2 h exposure to lipoperoxidators (CellTiter-Glo); settings: African green monkey, Vero cells, CC50, Vero
Method: (§4) The cells were washed twice with warm DMEM before a 100 μL lipoperoxidator solution was transferred with a multichannel pipette from the plate containing the drug dilutions in technical triplicates. The cells were incubated with peroxidators for 2 h at 37°C. Then, the medium was removed, and the cells were washed twice with DMEM at 37°C. The plates were cooled down to RT, and the medium was removed. Then, 50 μL phenol red free DMEM and 50 μL CellTiter-glo Luminiscent Cell Viability Assay (Promega, G7571/2/3) were added and mixed in an orbital shaker for 2 min. Afterwards, 80 μL of the mix was transferred onto white 96-well plates and incubated for 10 min at RT for signal stabilization. The luminescence was read in the Glomax Multidetection System (Promega) with an integration time of 0.5 s.
(§5) The means of the technical triplicates were normalized to the means of the vehicle controls, analyzed via nonlinear regression dose responses, and graphed using GraphPad Prism 9.0. Three or four independent biological replicates were performed for each treatment (n = 3 or 4).
(§6) To evaluate the effects of lipid soluble antioxidants, 10 μM vitamin E was loaded onto carrier 1% BSA in the dark for 4.5 h at RT. The cells were washed twice with DMEM at 37°C and preloaded with 100 μL of 10 μM vitamin E in BSA carrier for 3 h at 37°C. The cells were washed twice again before the addition of any lipoperoxidators. Peroxidators were then added to the cells at working concentrations and incubated for 2 h at 37°C. The peroxidation solution was then removed, and the cells were washed twice with DMEM before analyzing viability. To evaluate the effects of a water soluble antioxidant, the cells were treated with 10 μM vitamin C (final concentration) simultaneously with the lipoperoxidators.

Vero cells [5] = test: as above; settings: Vero
Method: as §4, §5, §6

[6] = HFF cell viability after 2 h exposure to lipoperoxidators (CellTiter-Glo); settings: human, HFF cells
Method: as §4, §5, §6

HFF cells = test: as above; settings: HFF
Method: as §4, §5, §6

HSV-1 [7] = test: HSV-1 virion infectivity (plaquing efficiency) on HFF cells after virion pretreatment; settings: for EC50: Human alphaherpesvirus 1, HFF
Method: as §1, §2, §3

Vero cells [8] = test: Vero cell lipid peroxidation probed with C11-Bodipy; assay type: cell-based, African green monkey; settings: C11-Bodipy (Fig. 8)
Method: (§7) The effects of peroxidators have been commonly evaluated against purified lipids and liposomes as a proxy, but they have not been evaluated against virions ([50], [53][–][55]). We instead directly evaluated the extent of virion lipid peroxidation.
To evaluate Vero cell lipoperoxidation with C11-Bodipy, 7.5 × 10^3 cells were seeded into each well of 96-well plates and incubated for 18 h at 37°C in 5% CO2 before preloading them with 1 μM C11-Bodipy for 30 min at 37°C. […] Two hours later, the cells were washed twice and lysed with DMSO:isopropanol. Fluorescence was evaluated in a TECAN Infinite M200 Pro at 550 nm excitation and 580 to 630 nm emission with the reading peak at 600 nm.
(§8) To evaluate the effects of a lipid soluble antioxidant, cells or virions were preloaded with vitamin E-BSA for 3 h at 37°C. Vitamin E-BSA containing medium was removed, and the cells were washed twice with DMEM. Liperfluo (20 or 10 μM for cells or virions, respectively) or C11-Bodipy (1 μM for cells or 0.1 mol% for virions) were preloaded into the cells or virions for 30 min at 37°C.
(§9) To evaluate the effects of water soluble antioxidants, liperfluo (20 μM for cells or 10 μM for virions) or C11-Bodipy (1 μM for cells or 0.1 mol% for virions) were preloaded into the cells or virions for 30 min at 37°C. […] Fluorescence was evaluated in a TECAN Infinite M200 Pro at 515 nm excitation and 545 nm emission for liperfluo or at 550 nm excitation and 580 to 630 nm emission for C11-Bodipy.

HSV-1 virions [9] = test: HSV-1 virion lipid peroxidation probed with C11-Bodipy; design: species or system HSV-1 KOS; settings: C11-Bodipy (Fig. 8)
Method: as §7
To evaluate virion lipoperoxidation with C11-Bodipy, 50 μL DMEM containing 5 × 10^6 PFU of HSV-1 was added into each well of 96-well plates. Virions were then preloaded with 0.1 mol % of C11-Bodipy for 30 min at 37°C. […] Fluorescence was evaluated in a TECAN Infinite M200 Pro at 550 nm excitation and 580 to 630 nm emission with the reading peak at 600 nm.
as §8, §9

Vero cells [10] = test: Vero cell lipid peroxidation probed with liperfluo; assay type: cell-based, African green monkey; settings: for EC50: Chlorocebus sabaeus, Vero, Liperfluo probe, read-out: CP50 (the source's name)
Method: as §7
To evaluate cell lipid peroxidation using liperfluo, 7.5 × 10^3 Vero cells were seeded into each well of 96-well plates and incubated for 18 h at 37°C in 5% CO2. […] Two hours later, the cells were washed twice, and the fluorescence was evaluated in a TECAN Infinite M200 Pro at 515 nm excitation and 545 nm emission.
as §8, §9

HSV-1 virions [11] = test: microbe, parasite or virus in culture; design: species or system HSV-1 KOS; settings: virions, at higher AAPH concentrations
Method: as §7
To evaluate virion peroxidation using liperfluo, 50 μL DMEM that contained 5 × 10^6 PFU of HSV-1 was added to 96-well plates. Virions were then preloaded with 10 μM liperfluo for 20 min at 37°C. […] Fluorescence was evaluated in a TECAN Infinite M200 Pro at 515 nm excitation and 545 nm emission. Medium containing no virus was used as blank.
as §8, §9

enveloped viruses = settings: cited from earlier work

Molecule: bovine serum albumin [BSA]
- drop of viral titers (HSV-1 [1]): about 30%
- protection of virion infectivity (HSV-1 [1]; after 3 h of incubation in atmospheric O2): about 30%

Molecule: O=C1O[C@H]([C@@H](O)CO)C(O)=C1O [vitamin C, L-ascorbic acid]
- drop of viral titers (HSV-1 [1]): about 30%

Molecule: O=c1[nH]c(=O)n([C@@H]2O[C@H](CO)[C@@H](O)[C@@H]2O)cc1C#Cc1ccc2c3cccc4cccc(c5cccc1c52)c43 [aUY11, 5-(Perylen-3-yl) ethynyl-arabino-uridine]
- inactivation by light exposure [2]: not inactivated

Molecule: Cc1c(C)c2c(c(C)c1O)CC[C@@](C)(CCC[C@H](C)CCC[C@H](C)CCCC(C)C)O2 [vitamin E, alpha tocopherol]
- protection of HSV-1 infectivity against the water soluble peroxidator (HSV-1 [3]; Vero and HFF (Fig. 5B and F), vitamin E preloading): did not protect
- protective effect on infectivity in atmospheric O2 (HSV-1 [1]): no protective effects

Molecule: CC(C)CCC[C@@H](C)[C@H]1CC[C@H]2[C@@H]3CC=C4C[C@@H](O)CC[C@]4(C)[C@H]3CC[C@]12C [cholesterol]
- protective effect on infectivity in atmospheric O2 (HSV-1 [1]): no protective effects

Molecule: CC(C)(N=NC(C)(C)C(=N)N)C(=N)N.Cl.Cl [AAPH, 2,2′-azobis(2-methylpropionamidine) dihydrochloride]
- CC50 at 2 h ([4]; no antioxidant, 2 h at 37°C): 69 mM
- CC50 at 2 h ([4]; with vitamin C (10 μM)): 88.4 mM
- concentration of maximal inhibition of cell viability (Vero cells [5]): 400000 µM
- lowest concentration that reduced cell viability (Vero cells [5]): 12.5 mM and 25 mM
- PI, CC50 (antioxidant)/CC50 (Vero cells [5]; vitamin C): 1.3
- PI, CC50 (antioxidant)/CC50 (Vero cells [5]; vitamin E): 2.0 ^*
- CC50 at 2 h [6]: 96.7 mM
- PI, CC50 (antioxidant)/CC50 (HFF cells; vitamin C): 1.1
- PI, CC50 (antioxidant)/CC50 (HFF cells; vitamin E): 0.5 ^*
- EC50 (HSV-1 [3]; 2 h, Vero, no antioxidant, virions treated 2 h at 37°C): 20.8 mM
- EC50 (HSV-1 [3]; Vero, virions preloaded with vitamin E (10 μM, BSA carrier)): 31 mM
- concentration of maximal inhibition of virion infectivity (HSV-1 [3]; Vero): 100 mM
- concentration giving a loss of infectivity of about 30% (HSV-1 [3]; Vero, 2 h at 37°C): 25 mM
- SI, CC50/EC50 (HSV-1 [3]; Vero, vitamin C): 0.9
- minimum inhibitory concentration (MIC) that decreased infectivity in the presence of vitamin C (HSV-1 [3]; Vero, vitamin C): 50 mM
- SI, CC50/EC50 (HSV-1 [3]; Vero, vitamin E): 4.4
- lowest concentration that decreased virion infectivity in the presence of BSA (HSV-1 [3]; Vero, with BSA): 50 mM
- lowest effective concentration on infectivity in the presence of the antioxidants (HSV-1 [3]; Vero, with antioxidants): 25 mM
- concentration giving a loss of infectivity of about 30% (HSV-1 [7]; 2 h at 37°C): 12.5 mM
- EC50 (HSV-1 [7]; 2 h, no antioxidant, virions treated 2 h at 37°C): 24.7 mM
- EC50 (HSV-1 [7]; virions preloaded with vitamin E (10 μM, BSA carrier)): 31.4 mM
- SI, CC50/EC50 (HSV-1 [7]; vitamin C): 1.7
- minimum inhibitory concentration (MIC) that decreased infectivity in the presence of vitamin C (HSV-1 [7]; vitamin C): 100 mM
- SI, CC50/EC50 (HSV-1 [7]; vitamin E): 3.1
- lowest concentration affecting cell lipid peroxidation (Vero cells [8]): 50 to 100 mM
- lowest concentration affecting virion peroxidation (HSV-1 virions [9]): 200 mM
- EC50 (Vero cells [10]; no antioxidant): 89.2 mM
- EC50 (Vero cells [10]; vitamin C): 90.7 mM
- EC50 (Vero cells [10]; vitamin E): 90.7 mM
- level of lipoperoxidation detected by liperfluo (Vero cells [10]; cells, at higher AAPH concentrations): < 2 AU
- level of lipoperoxidation detected by liperfluo (HSV-1 virions [11]): < 2 AU

Molecule: C=CCN1C(=O)/C(=C/c2ccc(-c3ccccc3)o2)SC1=S [LJ001]
- fold over antiviral concentrations at which not cytotoxic (enveloped viruses): ≥ 100 fold
